Experimental data taken from patent US10208088B1, “Low molecular polypeptide ZY4 and applications thereof” (Sichuan Synlight Biotech Ltd., priority 2015, dated 2019).
Values after ≈ are worked out from the molar mass of the structure shown. Read-outs that look alike come from different tables or passages of the source.

Legend:
[1] = test system: Escherichia coli; details: 37° C., 24 h
Method: (§4) Prepare Escherichia coli, Candida albicans, Staphylococcus aureus, Bacillus subtilis, Staphylococcus haemolyticus, Staphylococcus epidermidis, Staphylococcus cohnii solutions respectively, incubate at 37° C. for 18 h, for standby;
(§5) Prepare Broth Agar Medium, and sterilize it for standby;
(§6) Dissolve the Broth Agar Medium, cool down to 50° C., add 1 ml of Escherichia coli, Candida albicans, Staphylococcus aureus, Bacillus subtilis, Staphylococcus haemolyticus, Staphylococcus epidermidis, Staphylococcus cohnii solutions respectively, shake gently and pour into a sterile petri dish, gently shake the medium to evenly pave on the dish;
(§7) Place the filters into a cooled dish using a sterile tweezer orderly, cover with a tile cover and mark, then place to a 37° C. incubator for incubation for 24 h;

[2] = test system: Staphylococcus haemolyticus (09A4394 anti-ampicillin); details: 37° C., 24 h
Method: as §4, §5, §6, §7

[3] = test system: Staphylococcus cohnii (09B2490 anti-ampicillin); details: 37° C., 24 h
Method: as §4, §5, §6, §7

[4] = test system: Candida albicans; details: 37° C., 24 h
Method: as §4, §5, §6, §7

[5] = test system: liver cancer cell HepG2; details: NS control 1.0
Method: 1. Collect the liver cancer cell HepG2 in the logarithmic phase to prepare cell suspension, adjust its concentration to 5×10^6-10×10^6/ml, add 100 ul to each hole, pave the plate to adjust the cell density to 1000-10000 holes; fill the holes on the edges with sterile PBS;
(§1) 2. Incubate cells under the condition of 5% CO2 and 37° C. until the cell monolayer are paved on 96-hole plate bottom; after cell adhesion for 2-12 h, add the low molecular polypeptide ZY4 at a concentration of 100 ug/ml and 200 ug/ml, and the same volume of NS as control, to incubate for 16-48 h under the condition of 5% CO2 and 37° C., and then observe under an inverted microscope;
(§2) 3. Add 20 ul of 5 mg/ml MTT solution to each hole, to continue to culture 4 h, and then draw the culture solution in the hole;
(§3) 4. Add 150 ul of DMSO to each hole, place to a shaker for oscillation 10 min at a low speed, to allow the crystals fully dissolved, measure the absorbance values of each hole at OD 490 nm using a ELISA Reader; at the same time, set the zero hole and control hole.

[6] = test system: lung cancer cell A549; experiment: MTT assay against lung cancer cell A549; format: cell-based
Method: 1. Collect the lung cancer cell A549 in the logarithmic phase to prepare cell suspension, adjust its concentration to 5×10^6-10×10^6/ml, add 100 ul to each hole, pave the plate to adjust the cell density to 1000-10000 holes; fill the holes on the edges with sterile PBS;
as §1, with “ug/ml, paclitaxel at a concentration of 10 ug/ml” for “ug/ml,”, “5 ug/ml” for “the same volume of NS as control,”
as §2, §3

[7] = test system: P. acnes ATCC6919; details: 2 mg/ml ointment on left ear skin, treated for 1 day; 0.20 mm before treatment, PEG control 0.43 mm
Method: Select Kunming male mice at a weight of 18 g each, and randomly divide them into 3 groups, 9 mice each group, respectively the treatment group, positive control group, negative control group. Each mouse is anaesthetized with 50 ul of ketamine by intraperitoneal injection, and then injected with 20 ul of resuspended bacteria solution via intracutaneous injection in the left ear of each mouse;
Disinfect the left ears of mice with a clean alcohol cotton ball, and measure the thickness of the ears of mice, results are shown in FIG. 2.

[8] = test system: Staphylococcus aureus; details: 37° C., 24 h
Method: as §4, §5, §6, §7

[9] = test system: gastric cancer cell SGC7901
Method: 1. Collect the gastric cancer cell SGC7901 in the logarithmic phase to prepare cell suspension, adjust its concentration to 5×10^6-10×10^6/ml, add 100 ul to each hole, pave the plate to adjust the cell density to 1000-10000 holes; fill the holes on the edges with sterile PBS;
as §1, with “50-300” for “100 ug/ml and 200”
as §2, §3

[10] = test system: breast cancer cell MDA-435
Method: 1. Collect the breast cancer cell MDA-435 in the logarithmic phase to prepare cell suspension, adjust its concentration to 5×10^6-10×10^6/ml, add 100 ul to each hole, pave the plate to adjust the cell density to 1000-10000 holes; fill the holes on the edges with sterile PBS;
as §1, with “50-300” for “100 ug/ml and 200”
as §2, §3

[11] = test system: Bacillus subtilis; details: 37° C., 24 h
Method: as §4, §5, §6, §7

[12] = test system: Staphylococcus epidermidis (09A3726 anti-ampicillin); details: 37° C., 24 h
Method: as §4, §5, §6, §7

[13] = test system: melanoma cell A357; details: NS control 1.0
Method: 1. Collect the melanoma cell A357 in the logarithmic phase to prepare cell suspension, adjust its concentration to 5×10^6-10×10^6/ml, add 100 ul to each hole, pave the plate to adjust the cell density to 1000-10000 holes; fill the holes on the edges with sterile PBS;
as §1, §2, §3

[14] = test system: Staphylococcus aureus (09B2499); details: 37° C., 24 h
Method: as §4, §5, §6, §7

[15] = test system: P. acnes ATCC11817; details: 2 mg/ml ointment on left ear skin, once every 8 h, 3 times, mice sacrificed 24 h later; PEG control 9.44×10^5
Method: Select Kunming male mice at a weight of 18 g each, and randomly divide them into 3 groups, 6 mice each group, respectively the treatment group, positive control group, negative control group. Each mouse is anaesthetized with 120 ul of 1% pentobarbital sodium by intraperitoneal injection, and then injected with 20 ul of resuspended bacteria solution via intracutaneous injection in the left ear of each mouse;
Disinfect the left ears of mice with a clean alcohol cotton ball, cut off the left ears into pieces, transfer to a homogenizer for homogenization. Add 1 ml of NS for homogenization for one ear;
Dilute the homogenate to 1,000-fold, take 50 ul of diluent and apply to a brain heart infusion agar plate, culture at 37° C. under the anaerobic condition for 72 h, and count the colonies.

SMILES: CC(C)[C@H](N)C(=O)N[C@H]1CSSC[C@@H](C(=O)N[C@H](C(N)=O)C(C)C)NC(=O)[C@H](Cc2c[nH]c3ccccc23)NC(=O)[C@H](CCCCN)NC(=O)[C@H](CCCCN)NC(=O)[C@H](Cc2c[nH]c3ccccc23)NC(=O)[C@H](CCCCN)NC(=O)[C@H](CCCNC(=N)N)NC(=O)[C@H](CCCCN)NC(=O)[C@H](Cc2c[nH]c3ccccc23)NC(=O)[C@H](CCCCN)NC(=O)[C@H](CCCCN)NC(=O)[C@H](Cc2c[nH]c3ccccc23)NC(=O)[C@H](CCCNC(=N)N)NC(=O)[C@H](CCCCN)NC1=O [ZY4]
- Minimum inhibitory concentration [1]: 12.15 µg/mL (≈ 5.12 µM)
- Minimum inhibitory concentration [2]: 2.17 µg/mL (≈ 0.914 µM)
- Minimum inhibitory concentration [3]: 1.10 µg/mL (≈ 0.463 µM)
- Minimum inhibitory concentration [4]: 2.12 µg/mL (≈ 0.893 µM)
- OD value (MTT, OD 490 nm) ([5]; HepG2, 100 ug/ml ZY4, 16-48 h): 0.89
- OD value (MTT, OD 490 nm) ([5]; HepG2, 200 ug/ml ZY4, 16-48 h): 0.6
- OD value (MTT, OD 490 nm) ([6]; A549, 100 ug/ml ZY4, 16-48 h): 0.5
- OD value (MTT, OD 490 nm) ([6]; A549, 200 ug/ml ZY4, 16-48 h): 0.3
- thickness of mice ear [7]: 0.25 mm
- Minimum inhibitory concentration [8]: 2.14 µg/mL (≈ 0.901 µM)
- OD value (MTT, OD 490 nm) ([9]; SGC7901, 50 ug/ml ZY4, 16-48 h): 0.65
- OD value (MTT, OD 490 nm) ([9]; SGC7901, 100 ug/ml ZY4, 16-48 h): 0.57
- OD value (MTT, OD 490 nm) ([9]; SGC7901, 200 ug/ml ZY4, 16-48 h): 0.2
- OD value (MTT, OD 490 nm) ([9]; SGC7901, 300 ug/ml ZY4, 16-48 h): 0.09
- OD value (MTT, OD 490 nm) ([10]; MDA-435, 50 ug/ml ZY4, 16-48 h): 0.7
- OD value (MTT, OD 490 nm) ([10]; MDA-435, 100 ug/ml ZY4, 16-48 h): 0.61
- OD value (MTT, OD 490 nm) ([10]; MDA-435, 200 ug/ml ZY4, 16-48 h): 0.20
- OD value (MTT, OD 490 nm) ([10]; MDA-435, 300 ug/ml ZY4, 16-48 h): 0.17
- Minimum inhibitory concentration [11]: 1.10 µg/mL (≈ 0.463 µM)
- Minimum inhibitory concentration [12]: 2.45 µg/mL (≈ 1.03 µM)
- OD value (MTT, OD 490 nm) ([13]; A357, 100 ug/ml ZY4, 16-48 h): 1.0
- OD value (MTT, OD 490 nm) ([13]; A357, 200 ug/ml ZY4, 16-48 h): 0.72
- Minimum inhibitory concentration [14]: 2.25 µg/mL (≈ 0.948 µM)
- CFU of P. acnes after treatment [15]: 2.1×10^5 CFU

SMILES: CC(=O)O[C@H]1C(=O)[C@@]2(C)[C@H]([C@H](OC(=O)c3ccccc3)[C@]3(O)C[C@H](OC(=O)[C@H](O)[C@@H](NC(=O)c4ccccc4)c4ccccc4)C(C)=C1C3(C)C)[C@]1(OC(C)=O)CO[C@@H]1C[C@@H]2O [paclitaxel, reference compound]
- OD value (MTT, OD 490 nm) ([6]; A549, 10 ug/ml paclitaxel (first statement), 16-48 h): 0.5
- OD value (MTT, OD 490 nm) ([6]; A549, 10 ug/ml paclitaxel (second statement), 16-48 h): 0.7
